Measured values taken from patent US20090253794A1, “Fibroblast Activator, Collagen Production Promoter, Collagen Contraction Promoter, Hyaluronic Acid Production Promoter, ATP Production Promoter, Melanin Formation Inhibitor, and Agent for External Application to the Skin” (priority 2005, published 2009).
Entries after “also recorded” stand apart in the source; their conditions may differ.

Experiments:
B16 melanoma cells = assay: melanin formation suppression test, visual whitening and cell mass volume; type: cell-based, mouse; parameters: key to level of whitening: whitening high→++; whitening moderate→+; somewhat whitened→+−; no whitening→−; settings: 5 days; for level of whitening: visual evaluation; for change in cell mass volume: visual, cytotoxicity index
Procedure: A melanin formation suppression test was performed as follows using mouse melanoma cells. First, 2×10^4 B16 melanoma cells were plated in a 35 mm diameter dish containing Eagle's minimum nutrition medium (3 ml) supplemented with 10% (v/v) fetal bovine serum, and cultured in a carbon dioxide incubator adjusted to 5% (v/v) carbon dioxide gas at 37° C. for about 24 hr. Then, pure water or a sample dissolved in pure water was added thereto to a final concentration of 0.1 mM, 1.0 mM or 10 mM. As a positive control, kojic acid (manufactured by Sigma Ltd.) was added to the same concentration. The cells were cultured for 5 more days under the same conditions, treated with trypsin, and centrifuged to collect the cells in a 1.5 ml Eppendorf. The level of whitening of the cells was visually evaluated, and indicated: whitening high→++; whitening moderate→+; somewhat whitened→+−; no whitening→−. Simultaneously, changes in the cell mass volume was visually evaluated and used as a cytotoxicity index.

human normal melanocytes = assay: melanin formation suppression test in human melanocytes (L-DOPA, absorbance 495 nm); type: cell-based; settings: 5 days, relative value, without addition of sample = 100
Procedure: A melanin formation suppression test was performed using human melanocytes (manufactured by KURABO INDUSTRIES LTD.). That is, human normal melanocytes amplified in Medium 254 medium (human melanocyte medium added with HMGS, manufactured by KURABO INDUSTRIES LTD.) was added to a 96 well plate at 10^4 cells per well, and cultured in a carbon dioxide incubator adjusted to 5% (v/v) carbon dioxide gas at 37° C. for about 24 hr. Then, pure water or a sample (conagenin) dissolved in pure water was added thereto to a final concentration of 0.1 mM, 1.0 mM or 10 mM. As a positive control, kojic acid (manufactured by Sigma Ltd.) was added to the same concentration. The cells were cultured for 5 more days under the same conditions. To the recovered cells was added 50 μl of cell suspension (PBS buffer containing Triton X-100 at 0.1% (v/v)). After thorough suspending, the suspension was stood at 4° C. for 1 hr. Thereto was added 50 μl of 10 mM L-DOPA (manufactured by Nacalai Tesque), and the mixture was incubated at 37° C. for 1 hr. Thereafter, the absorbance at 495 nm was measured by a plate reader (multiscanplus MKII, manufactured by Japan Flow Laboratory), and the melanin formation amount was measured (shown in a relative value to the value without addition of sample as 100).

SMILES: O=c1cc(CO)occ1O [kojic acid, reference compound]
- level of whitening (B16 melanoma cells; 0.1 mM): +−
- change in cell mass volume (B16 melanoma cells; 0.1 mM): none
- level of whitening (B16 melanoma cells; 1 mM): +
- change in cell mass volume (B16 melanoma cells; 1 mM): none
- change in cell mass volume (B16 melanoma cells; 10 mM): cell death occurred; also recorded: yes (cell death)
- melanin formation amount (human normal melanocytes; 100 μM): 105
- melanin formation amount (human normal melanocytes; 1 mM): 88
